Test results as given in PubChem BioAssay AID248 (DTP/NCI, 2004).
Several values for one entry are separate records, joined by “and”; a condition that tells them apart may be missing. Equal entries are not always repeated. Toxic doses and inconclusive results are not listed. Cut-off read from the data, not from the text of the source: active = T/C of 150% or more; inactive = T/C below 125%. Peptide text beside a SMILES is read from it. * marks the point of attachment. Cbz = O=C(OCc1ccccc1)*

Tested on: L1210 leukemia ip in BDF1 mice, survival T/C
Test: NCI In Vivo Anticancer Drug Screen. Data for tumor model L1210 Leukemia (intraperitoneal) in B6D2F1 (BDF1) mice
Conditions: endpoint: mean survival time, higher = longer survival
Summary of the method: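 Mice bearing the transplanted tumor received compound or vehicle. Survival of the treated group was divided by that of the vehicle-treated control group to give the ratio.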

[1] = dose: 50.0 mg/kg/injection, schedule: Q01DX001 (ip), vehicle: Klucel (hydroxypropylcellulose) (HPC)
[2] = dose: 100.0 mg/kg/injection, schedule: Q01DX001 (ip), vehicle: Klucel (hydroxypropylcellulose) (HPC)
[3] = dose: 200.0 mg/kg/injection, schedule: Q01DX001 (ip), vehicle: Klucel (hydroxypropylcellulose) (HPC)
[4] = dose: 100.0 mg/kg/injection, schedule: Q04DX003 (ip), vehicle: saline with Tween-80
[5] = dose: 200.0 mg/kg/injection, schedule: Q04DX003 (ip), vehicle: saline with Tween-80
[6] = dose: 400.0 mg/kg/injection, schedule: Q04DX003 (ip), vehicle: saline with Tween-80
[7] = dose: 100.0 mg/kg/injection, schedule: Q04DX003 (ip), vehicle: Klucel (hydroxypropylcellulose) (HPC)
[8] = dose: 200.0 mg/kg/injection, schedule: Q04DX003 (ip), vehicle: Klucel (hydroxypropylcellulose) (HPC)
[9] = dose: 400.0 mg/kg/injection, schedule: Q04DX003 (ip), vehicle: Klucel (hydroxypropylcellulose) (HPC)
[10] = dose: 100.0 mg/kg/injection, schedule: Q01DX009 (ip), vehicle: Klucel (hydroxypropylcellulose) (HPC)
[11] = dose: 200.0 mg/kg/injection, schedule: Q01DX009 (ip), vehicle: Klucel (hydroxypropylcellulose) (HPC)
[12] = dose: 400.0 mg/kg/injection, schedule: Q01DX009 (ip), vehicle: Klucel (hydroxypropylcellulose) (HPC)
[13] = dose: 100.0 mg/kg/injection, schedule: Q04DX002 (ip), vehicle: saline with Tween-80
[14] = dose: 200.0 mg/kg/injection, schedule: Q04DX002 (ip), vehicle: saline with Tween-80
[15] = dose: 400.0 mg/kg/injection, schedule: Q04DX002 (ip), vehicle: saline with Tween-80
[16] = dose: 100.0 mg/kg/injection, schedule: Q01DX001 (ip), vehicle: saline
[17] = dose: 200.0 mg/kg/injection, schedule: Q01DX001 (ip), vehicle: saline
[18] = dose: 400.0 mg/kg/injection, schedule: Q01DX001 (ip), vehicle: saline
[19] = dose: 100.0 mg/kg/injection, schedule: Q04DX002 (ip), vehicle: Klucel (hydroxypropylcellulose) (HPC)
[20] = dose: 200.0 mg/kg/injection, schedule: Q04DX002 (ip), vehicle: Klucel (hydroxypropylcellulose) (HPC)
[21] = dose: 400.0 mg/kg/injection, schedule: Q04DX002 (ip), vehicle: Klucel (hydroxypropylcellulose) (HPC)

Measured: T/C

CN(C)c1ccc(C(=O)CCCN2CCC(O)(c3ccc(C(F)(F)F)cc3)CC2)cc1
inactive: [1] 97 % of control | [2] 96 % of control | [3] 105 % of control

O=C1C(Cl)=C(Nc2nc3ccccc3s2)C(=O)c2ccccc21
inactive: [2] 100 % of control | [3] 94 % of control

COC(=O)C(NC(=O)C1CCCN1C(=O)OCc1ccccc1)C(C)C (stereo not drawn) (Cbz-Pro-Val-OMe; configuration not given here)
inactive: dose: 25.0 mg/kg/injection, schedule: Q04DX003 (ip), vehicle: saline with Tween-80 95 % of control | dose: 50.0 mg/kg/injection, schedule: Q04DX003 (ip), vehicle: saline with Tween-80 95 % of control | [4] 106 % of control | [5] 95 % of control | [6] 94 % of control

CCCCCCC(=O)N1C(C)CCCC1C (stereo not given)
inactive: dose: 100.0 mg/kg/injection, schedule: Q04DX002 (ip), vehicle: saline 107 % of control | dose: 200.0 mg/kg/injection, schedule: Q04DX002 (ip), vehicle: saline 103 % of control | dose: 400.0 mg/kg/injection, schedule: Q04DX002 (ip), vehicle: saline 92 % of control

Cc1ccc(NC(=O)c2cc3ccccc3cc2O)c(C)c1
inactive: dose: 100.0 mg/kg/injection, schedule: Q01DX001 (ip), vehicle: other 92 % of control | [7] 100 % of control | dose: 200.0 mg/kg/injection, schedule: Q01DX001 (ip), vehicle: other 92 % of control | [8] 94 % of control | dose: 400.0 mg/kg/injection, schedule: Q01DX001 (ip), vehicle: other 92 % of control | [9] 105 % of control

O=C(N/N=C/c1ccc(Cl)cc1)c1cccc([N+](=O)[O-])c1
inactive: [10] 94 % of control | [11] 94 % of control | [12] 95 % of control

O=[N+]([O-])c1ccccc1NC1OC(CO)C(O)C1O (stereo not given)
inactive: [13] 102 % of control | [14] 98 % of control | [15] 102 % of control

NC(CSS(=O)(=O)O)=NCCCc1ccccc1
inactive: dose: 12.5 mg/kg/injection, schedule: Q04DX002 (ip), vehicle: Klucel (hydroxypropylcellulose) (HPC) 97 % of control | dose: 25.0 mg/kg/injection, schedule: Q04DX002 (ip), vehicle: Klucel (hydroxypropylcellulose) (HPC) 108 % of control

CCCCCCCCCCCCCCCC(=O)OC(C)CCC1CCCO1 (stereo not given)
inactive: [16] 90 % of control | [17] 95 % of control | [18] 90 % of control

O=C(c1ccccc1)C1C(C(=O)c2ccccc2)N1Cc1ccccc1 (stereo not given)
inactive: [10] 100 % of control | [7] 96 % of control and 93 % of control | [11] 101 % of control | [8] 96 % of control and 91 % of control | [12] 97 % of control | [9] 93 % of control and 100 % of control

O=C(O)CCCC[Se][Se]CCCCC(=O)O
inactive: dose: 25.0 mg/kg/injection, schedule: Q01DX001 (ip), vehicle: Klucel (hydroxypropylcellulose) (HPC) 102 % of control | [1] 96 % of control | [2] 99 % of control

CC(=O)O[C@H]1CC[C@@]2(C)C(=CC[C@H]3[C@@H]4CC[C@H](O)[C@@]4(C)CC[C@@H]32)C1
inactive: [7] 103 % of control | [8] 103 % of control | [9] 96 % of control

CC(C)=CCC1=C(Cl)C(=O)c2ccccc2C1=O
inactive: [2] 96 % of control | [3] 104 % of control | dose: 400.0 mg/kg/injection, schedule: Q01DX001 (ip), vehicle: Klucel (hydroxypropylcellulose) (HPC) 101 % of control

COc1ccc(S(=O)(=O)F)cc1C(=O)O
inactive: dose: 100.0 mg/kg/injection, schedule: Q01DX001 (ip), vehicle: saline with Tween-80 100 % of control | dose: 100.0 mg/kg/injection, schedule: Q01DX009 (ip), vehicle: saline with Tween-80 100 % of control | [13] 90 % of control | [4] 94 % of control | dose: 200.0 mg/kg/injection, schedule: Q01DX001 (ip), vehicle: saline with Tween-80 92 % of control | dose: 200.0 mg/kg/injection, schedule: Q01DX009 (ip), vehicle: saline with Tween-80 100 % of control | [14] 113 % of control | [5] 97 % of control | dose: 400.0 mg/kg/injection, schedule: Q01DX001 (ip), vehicle: saline with Tween-80 94 % of control | [15] 86 % of control | [6] 88 % of control

Nc1nc(N)c2nc(-c3ccccc3)c(N)nc2n1
inactive: dose: 2.13 mg/kg/injection, schedule: Q01DX Z (ip), vehicle: other 91 % of control | dose: 6.25 mg/kg/injection, schedule: Q01DX Z (ip), vehicle: other 97 % of control | dose: 12.5 mg/kg/injection, schedule: Q01DX Z (ip), vehicle: other 105 % of control

CC1(C)OC2C(COC(N)=O)OC(n3cnc4c(=O)[nH]c(N)nc43)C2O1 (stereo not given)
inactive: dose: 100.0 mg/kg/injection, schedule: Q01DX005 (ip), vehicle: saline 105 % of control | dose: 200.0 mg/kg/injection, schedule: Q01DX005 (ip), vehicle: saline 103 % of control

COc1ccccc1/C(C)=N\NC(N)=O
inactive: [16] 97 % of control | [17] 93 % of control | [18] 103 % of control

CCCCCCCCCCCCCCCC(=O)SCCSC(=O)CCCCCCCCCCCCCCC
inactive: dose: 87.5 mg/kg/injection, schedule: Q04DX003 (ip), vehicle: other 93 % of control | dose: 175.0 mg/kg/injection, schedule: Q04DX003 (ip), vehicle: other 93 % of control

O=C(Nc1ccccc1)Nc1cccc2ccccc12
inactive: dose: 100.0 mg/kg/injection, schedule: Q04DX002 (ip), vehicle: gum acacia 102 % of control | dose: 200.0 mg/kg/injection, schedule: Q04DX002 (ip), vehicle: gum acacia 94 % of control | dose: 400.0 mg/kg/injection, schedule: Q04DX002 (ip), vehicle: gum acacia 94 % of control

CCOC(=O)c1cncc(C(=O)OCC)c1
inactive: dose: 50.0 mg/kg/injection, schedule: Q01DX009 (ip), vehicle: Klucel (hydroxypropylcellulose) (HPC) 100 % of control | [10] 100 % of control | [7] 101 % of control | [11] 104 % of control | [8] 92 % of control | [12] 112 % of control | [9] 100 % of control

COc1ccc(NC(=O)COc2ccc(Cl)cc2Cl)cc1
inactive: [19] 108 % of control | [20] 92 % of control | [21] 94 % of control

CN(C)c1ccc2nc3ccc(=O)cc-3sc2c1
inactive: dose: 50.0 mg/kg/injection, schedule: Q04DX002 (ip), vehicle: Klucel (hydroxypropylcellulose) (HPC) 88 % of control | [19] 95 % of control | [20] 92 % of control | [21] 95 % of control

Nc1c(Br)cc(O)c2c1C(=O)c1ccccc1C2=O
inactive: [10] 88 % of control | [7] 100 % of control | [11] 90 % of control | [8] 100 % of control | [12] 90 % of control | [9] 96 % of control

Cc1ccc(NS(=O)(=O)c2ccc(F)cc2)cc1Cl
inactive: [10] 92 % of control | [7] 100 % of control | [11] 95 % of control | [8] 97 % of control | [12] 95 % of control | [9] 97 % of control
